Patent US8012975B2, “Antitumoral analogs of ET-743” (Pharma Mar, S.A., priority 2000, dated 2011)
Read-outs that look alike come from different tables or passages of the source.

How the values were obtained:
A-549 = experiment: Cytotoxic activity IC50, A-549
HT-29 [1] = experiment: Cytotoxic activity IC50, HT-29
MEL-28 = experiment: Cytotoxic activity IC50, MEL-28
P-388 [2] = experiment: Cytotoxic activity IC50, P-388
DU-145 = experiment: Cytotoxic activity IC50, DU-145
P-388 [3] = test system: P-388
HT-29 [4] = test system: HT-29
[5] = Homo sapiens, A549, read-out: CYTOTOXIC ACTIVITIY IC50 (μM) A-549, A-549
[6] = Homo sapiens, HT-29, read-out: CYTOTOXIC ACTIVITIY IC50 (μM) HT-29, HT-29
[7] = Homo sapiens, SK-MEL-28, read-out: CYTOTOXIC ACTIVITIY IC50 (μM) MEL-28, MEL-28
[8] = Mus musculus, P388, read-out: CYTOTOXIC ACTIVITIY IC50 (μM) P-388
[9] = Homo sapiens, DU-145, read-out: CYTOTOXIC ACTIVITIY IC50 (μM) DU-145, DU-145

COc1c(C)cc2c(c1O)[C@@H]1C3Cc4c(OC(C)=O)c(C)c5c(c4[C@H](CNC(=O)Cc4ccccc4)N3[C@@H](O)[C@H](C2)N1C)OCO5 (stereo partly shown) [drawing 124]
IC50 (A-549; [5]): 0.0007 µM | IC50 (HT-29 [1]; [6]): 0.0007 µM | IC50 (MEL-28; [7]): 0.0007 µM | IC50 (P-388 [2]; [8]): 0.0007 µM | IC50 (DU-145; [9]): 0.0007 µM

COCOc1c(OC)c(C)cc2c1[C@@H]1C3Cc4c(O)c(C)c5c(c4[C@H](COC(=O)/C=C/c4cccc(C(F)(F)F)c4)N3[C@@H](C#N)[C@H](C2)N1C)OCO5 (stereo partly shown)
IC50 (A-549; [5]): 0.1 µM | IC50 (HT-29 [1]; [6]): 0.1 µM | IC50 (MEL-28; [7]): 0.1 µM | IC50 (P-388 [2]; [8]): 0.1 µM | IC50 (DU-145; [9]): 0.1 µM

COc1c(C)cc2c(c1O)[C@@H]1C3Cc4c(OC(=O)CCl)c(C)c5c(c4[C@H](CNC(=O)CCc4ccccc4)N3[C@@H](C#N)[C@H](C2)N1C)OCO5 (stereo partly shown)
IC50 (A-549; [5]): 0.001 µM | IC50 (HT-29 [1]; [6]): 0.001 µM | IC50 (MEL-28; [7]): 0.001 µM | IC50 (P-388 [2]; [8]): 0.001 µM | IC50 (DU-145; [9]): 0.001 µM

CCCC(=O)OC[C@H]1c2c(c(O)c(C)c3c2OCO3)CC2[C@H]3c4c(cc(C)c(OC)c4OCOC)C[C@@H]([C@H](C#N)N21)N3C (stereo partly shown)
IC50 (A-549; [5]): 0.1 µM | IC50 (HT-29 [1]; [6]): 0.1 µM | IC50 (MEL-28; [7]): 0.1 µM | IC50 (P-388 [2]; [8]): 0.1 µM | IC50 (DU-145; [9]): 0.1 µM

COc1c(C)cc2c(c1O)[C@@H]1C3Cc4c(OC(C)=O)c(C)c5c(c4[C@H](CNC(=O)[C@@H](NC(=O)OCc4ccccc4)C(C)C)N3[C@@H](C#N)[C@H](C2)N1C)OCO5 (stereo partly shown)
IC50 (A-549; [5]): 0.001 µM | IC50 (HT-29 [1]; [6]): 0.001 µM | IC50 (MEL-28; [7]): 0.001 µM | IC50 (P-388 [2]; [8]): 0.001 µM | IC50 (DU-145; [9]): 0.001 µM

COc1c(C)cc2c(c1O)[C@@H]1C3Cc4c(OC(C)=O)c(C)c5c(c4[C@H](CNC(=O)/C=C/c4cccc(C(F)(F)F)c4)N3[C@@H](O)[C@H](C2)N1C)OCO5 (stereo partly shown) [drawing 109]
IC50 (A-549; read-out: CYTOTOXIC ACTIVITIY IC50 (μM) A-549, A-549): 0.0001 µM | IC50 (HT-29 [1]; read-out: CYTOTOXIC ACTIVITIY IC50 (μM) HT-29, HT-29): 0.0001 µM | IC50 (MEL-28; read-out: CYTOTOXIC ACTIVITIY IC50 (μM) MEL-28, MEL-28): 0.0001 µM | IC50 (P-388 [2]; read-out: CYTOTOXIC ACTIVITIY IC50 (μM) P-388, P-388): 0.0001 µM | IC50 (DU-145; read-out: CYTOTOXIC ACTIVITIY IC50 (μM) DU-145, DU-145): 0.0001 µM

COc1c(C)cc2c(c1O)[C@@H]1C3Cc4c(OC(=O)C(F)(F)C(F)(F)C(F)(F)F)c(C)c5c(c4[C@H](CNC(=O)CCc4ccccc4)N3[C@@H](C#N)[C@H](C2)N1C)OCO5 (stereo partly shown)
IC50 (A-549; Homo sapiens, A549, read-out: CYTOTOXIC ACTIVITIY IC50 (μM) A-549): 0.006 µM | IC50 (HT-29 [1]; Homo sapiens, HT-29, read-out: CYTOTOXIC ACTIVITIY IC50 (μM) HT-29): 0.006 µM | IC50 (MEL-28; Homo sapiens, SK-MEL-28, read-out: CYTOTOXIC ACTIVITIY IC50 (μM) MEL-28): 0.006 µM | IC50 (P-388 [2]; [8]): 0.006 µM | IC50 (DU-145; Homo sapiens, DU-145, read-out: CYTOTOXIC ACTIVITIY IC50 (μM) DU-145): 0.006 µM

COCOc1c(OC)c(C)cc2c1[C@@H]1C3Cc4c(OC(C)=O)c(C)c5c(c4[C@H](COC(=O)CCc4ccccc4)N3[C@@H](C#N)[C@H](C2)N1C)OCO5 (stereo partly shown)
IC50 (A-549; [5]): 0.1 µM | IC50 (HT-29 [1]; [6]): 0.1 µM | IC50 (MEL-28; [7]): 0.1 µM | IC50 (P-388 [2]; [8]): 0.1 µM | IC50 (DU-145; [9]): 0.1 µM

COc1c(C)cc2c(c1O)[C@@H]1C3Cc4c(OC(C)=O)c(C)c5c(c4[C@H](CNC(=O)[C@H](C)NC(=O)[C@@H](NC(=O)OCc4ccccc4)C(C)C)N3[C@@H](C#N)[C@H](C2)N1C)OCO5 (stereo partly shown)
IC50 (A-549; [5]): 0.01 µM | IC50 (HT-29 [1]; [6]): 0.01 µM | IC50 (MEL-28; [7]): 0.01 µM | IC50 (P-388 [2]; [8]): 0.01 µM | IC50 (DU-145; [9]): 0.01 µM

COc1c(C)cc2c(c1O)[C@@H]1C3Cc4c(OC(C)=O)c(C)c5c(c4[C@H](COC(=O)/C=C/c4ccccc4)N3[C@@H](O)[C@H](C2)N1C)OCO5 (stereo partly shown) [drawing 159]
IC50 (P-388 [3]): 0.1 nM

COCOc1c(OC)c(C)cc2c1[C@@H]1C3Cc4c(OC(=O)C(F)(F)F)c(C)c5c(c4[C@H](CNC(=O)CCc4ccccc4)N3[C@@H](C#N)[C@H](C2)N1C)OCO5 (stereo partly shown)
IC50 (A-549; [5]): 0.5 µM | IC50 (HT-29 [1]; [6]): 0.5 µM | IC50 (MEL-28; [7]): 0.5 µM | IC50 (P-388 [2]; [8]): 0.5 µM | IC50 (DU-145; [9]): 0.5 µM

C=CCOc1c(C)c2c(c3c1CC1[C@H]4c5c(cc(C)c(OC)c5OCOC)C[C@@H]([C@H](C#N)N1[C@H]3COC(=O)/C=C/c1cccc(C(F)(F)F)c1)N4C)OCO2 (stereo partly shown)
IC50 (A-549; [5]): > 1 µM | IC50 (HT-29 [1]; [6]): > 1 µM | IC50 (MEL-28; [7]): > 1 µM | IC50 (P-388 [2]; [8]): > 1 µM | IC50 (DU-145; [9]): > 1 µM

COc1c(C)cc2c(c1O)[C@@H]1C3Cc4c(OC(C)=O)c(C)c5c(c4[C@H](CNC(=O)[C@H](C)NC(=O)/C=C/c4ccccc4)N3[C@@H](C#N)[C@H](C2)N1C)OCO5 (stereo partly shown)
IC50 (HT-29 [4]): 0.1 nM

CCCC(=O)N[C@@H](C)C(=O)NC[C@H]1c2c(c(OC(C)=O)c(C)c3c2OCO3)CC2[C@H]3c4c(cc(C)c(OC)c4O)C[C@@H]([C@H](O)N21)N3C (stereo partly shown)
IC50 (A-549; [5]): 0.001 µM | IC50 (HT-29 [1]; [6]): 0.001 µM | IC50 (MEL-28; [7]): 0.001 µM | IC50 (P-388 [2]; [8]): 0.001 µM | IC50 (DU-145; [9]): 0.001 µM

C/C=C/C(=O)N[C@@H](C)C(=O)NC[C@H]1c2c(c(OC(C)=O)c(C)c3c2OCO3)CC2[C@H]3c4c(cc(C)c(OC)c4O)C[C@@H]([C@H](O)N21)N3C (stereo partly shown)
IC50 (A-549; [5]): 0.007 µM | IC50 (HT-29 [1]; [6]): 0.001 µM | IC50 (MEL-28; [7]): 0.001 µM | IC50 (P-388 [2]; [8]): 0.001 µM | IC50 (DU-145; [9]): 0.007 µM
